{"source": "patent US20240034785A1", "about": "“RXR-ALPHA BINDERS AND RXR-ALPHA/PLK1 MODULATORS” (NUCMITO PHARMACEUTICALS CO. LTD., priority 2020, published 2024)", "key": {"[1]": {"target": "T1, RXRα heterodimerization with RARγ (Homo sapiens, UniProt P19793)", "T1 construct": "expressed in transfected cells; host or cells: HeLa", "T1 sequence (P19793 1-462)": "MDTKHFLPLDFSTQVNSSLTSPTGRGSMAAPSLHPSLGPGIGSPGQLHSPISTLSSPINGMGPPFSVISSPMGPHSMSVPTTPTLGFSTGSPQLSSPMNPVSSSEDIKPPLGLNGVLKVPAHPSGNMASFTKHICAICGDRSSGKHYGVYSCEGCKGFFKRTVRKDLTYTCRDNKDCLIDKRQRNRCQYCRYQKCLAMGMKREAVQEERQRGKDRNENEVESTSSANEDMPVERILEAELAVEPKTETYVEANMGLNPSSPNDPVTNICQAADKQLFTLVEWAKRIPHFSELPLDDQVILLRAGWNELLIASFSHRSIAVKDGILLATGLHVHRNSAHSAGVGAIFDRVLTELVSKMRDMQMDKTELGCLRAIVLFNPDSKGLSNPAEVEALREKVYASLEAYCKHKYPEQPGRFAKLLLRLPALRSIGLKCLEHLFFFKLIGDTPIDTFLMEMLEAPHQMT", "T1 sequence (P13631 1-454 partner)": "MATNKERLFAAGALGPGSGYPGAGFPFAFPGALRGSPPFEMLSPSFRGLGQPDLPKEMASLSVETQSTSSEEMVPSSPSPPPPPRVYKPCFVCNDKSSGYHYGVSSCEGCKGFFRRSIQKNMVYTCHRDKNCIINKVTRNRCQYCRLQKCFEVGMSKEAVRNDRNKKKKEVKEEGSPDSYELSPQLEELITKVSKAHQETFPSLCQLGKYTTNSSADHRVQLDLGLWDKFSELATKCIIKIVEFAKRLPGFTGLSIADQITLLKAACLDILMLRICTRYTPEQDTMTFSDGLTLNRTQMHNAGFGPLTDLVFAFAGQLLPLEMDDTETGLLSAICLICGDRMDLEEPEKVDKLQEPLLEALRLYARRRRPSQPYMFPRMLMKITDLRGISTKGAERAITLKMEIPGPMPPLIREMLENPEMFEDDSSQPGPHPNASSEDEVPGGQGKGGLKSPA", "assay": "Co-immunoprecipitation of Myc-RXRα with FLAG-RARγ in HeLa cells", "format": "cell-based", "settings": "10 μM for 3 hr (FIG. 55)"}, "[2]": {"system": "HeLa cells", "assay": "MT nucleation activity at the centrosomes in cold-treated, reheated HeLa cells", "format": "cell-based, human", "settings": "reheated at 37° C., 10 μM (FIG. 59)"}, "[3]": {"system": "primary human hepatocellular carcinoma cells", "assay": "Western blot analysis of primary hepatic carcinoma cells from a liver cancer patient", "format": "cell-based", "settings": "10 μM for 48 hr (FIG. 63)", "method": "Tissue samples were obtained by surgical resection and processed within 2 hr. Chen et al., Oncotarget 2016, 7, 17047-59. Samples were washed with 1×SC-2 solution, minced with fine sterile scissors and scalpel into fragments of ˜1 mm^3. They were then treated with pre-warmed collagenase type IV for 30 min at 37° C. and filtered through a 70 μm cell strainer. The pellet containing the liver cells was resuspended in ice cold SC-2 solution and triple centrifugation at 1,000 g for 10 min at 4° C. was performed in order to separate the purified hepatocyte population (pellet) from non-parenchymal cells (supernatant). The pellet contained the purified hepatocytes. The resolved single-cell suspensions were then re-suspended in a primary cell culture medium (DMEM, 20% FBS, 2 mM glutamine, 1 mM pyruvate, 10 mM HEPES, 100 units/mL penicillin/streptomycin, 0.1 mg/mL gentamicin, and […] fungizone), plated in 6-well plates coated with 5 μg/cm^2 rat tail collagen type I and maintained in culture at 37° C. and 5% CO2."}, "[4]": {"system": "primary mouse liver tumor cells", "assay": "Western blot analysis of primary mouse liver tumor cells", "format": "cell-based", "settings": "10 μM for 24 hr (FIG. 65)", "method": "Briefly, a liver from a mouse was removed and washed in 1×PBS. The tumor tissue was resected from the liver and transferred to 5 mL PBS/2% FBS. The tumor tissue was minced with fine sterile scissors into fragments, followed by addition of 5 mL pre-warmed 2 mg/mL collagenase type IV/dispase. After incubated for 30 min at 37° C., the tumor cells were filtered through a 70 μm cell strainer and spined at 1,000 rpm for 5 min at 4° C. The pellet containing the liver tumor cells was then resuspended in 5 mL of 1×RBC lysis buffer and incubated on ice for 5 min. The tumor cells were spined and washed by 1×PBS/2% FBS for 2-3 times. Finally, the tumor cells were resuspended with DMEM (10% FBS, 40 ng/mL EGF, 0.008 ng/mL IGF-II) and plated in culture dishes that were pre-coated with collagen."}, "[5]": {"system": "B16F10 and 4T1 cells", "assay": "Mitotic arrest and chromosome misalignment in B16F10 and 4T1 tumor cells", "format": "cell-based, mouse"}, "[6]": {"system": "HepG2 xenografts", "assay": "HepG2 xenografts in nude mice", "format": "in vivo, mouse", "method": "FIGS. 69 and 70 show the analysis of nude mice injected with HepG2 cells, where the mice were treated with compound A1 (80 mg/kg) once every two days. The tumor volume was monitored and recorded. Tumors excised at day 14 were shown in FIG. 69 and weight in FIG. 70 (±SEM; **p<0.01).\nBALB/c nude mice (7-8 weeks old) were injected subcutaneously with 100 μL HepG2 cells (2×10^6). For treatment, mice were administered with compound A1 (80 mg/kg) diluted in corn oil once every two days. Body weights and tumor sizes were measured every 2 days with tumor volumes (V) calculated by the formula of (width)^2×length/2. The mice were sacrificed after 14 days of treatment and tumors were removed for additional assessments. Isolation and culture of mouse primary liver tumor cells\nLivers or transplanted tumor from mouse were fixed in 4% neutral buffered formalin phosphate (pH 7.0) for periods not exceeding 24 hr and were subsequently embedded in paraffin. They were sliced into 4-μm sections for H&E (hematoxylin and eosin) staining, immunofluorescence and for immunohistochemistry. To examine hepatocytes, H&E stained-liver sections were analyzed with an image analysis system. For immunostaining, liver sections or tumor sections were incubated with an anti-γ-tubulin (1:200 dilution), anti-pS10-H3 (1:200 dilution), anti-γ-H2AX (1:200 dilution), or cleaved-caspase-3 (1:100 dilution) antibody. Positive cells or areas were counted and measured, respectively, for at least 10 fields."}, "[7]": {"target": "T2, m-RXRα (p-RXRα) interaction with PLK1 (Homo sapiens, UniProt P19793)", "T2 sequence (P19793 1-462)": "T1 sequence (P19793 1-462)", "assay": "Co-immunoprecipitation of Myc-RXRα with FLAG-PLK1 in HeLa cells", "settings": "10 μM for 3 hr (FIG. 55)", "procedure": "Briefly, cells were harvested in a lysis buffer (10 mM Tris, pH 7.4, 150 mM NaCl, 0.5% NP40, 5 mM ethylene diamine tetraacetic acid, containing protease inhibitors). Cell lysates were incubated with an antibody (1 μg) at 4° C. for 2 hr. Immunocomplexes were then precipitated with 30 μL of protein G-Sepharose beads. After an extensive washing with the lysis buffer, the beads were boiled in a sodium dodecyl sulfate (SDS) sample loading buffer and assessed by western blotting.\nCell lysates were boiled in an SDS sample loading buffer, resolved by 10% SDS-polyacrylamide gel electrophoresis (SDS-PAGE), and transferred to PVDF membranes. The membranes were blocked with 5% milk in a Tris buffered saline and TWEEN 20 (TBST)(10 mM Tris-HCl, pH 8.0, 150 mM NaCl, 0.05% TWEEN 20) for 1 hr at room temperature. After washing twice with TBST, the membranes were incubated with primary antibodies in TBST for 1 hr and then washed twice, probed with a horseradish peroxide-linked anti-immunoglobulin (1:5,000 dilution) for 1 hr at room temperature. After three washes with TBST, immunoreactive products were visualized using enhanced chemiluminescence reagents and autoradiography."}}}
{"smiles": "COc1ccc(CC(=O)N/N=C/c2c(O)ccc3ccccc23)cc1", "note": "[Compound A1, (E)-N′-((2-hydroxynaphthalen-1-yl)methylene)-2-(4-methoxyphenyl)acetohydrazide]", "values": [{"measurement": "RXRα heterodimerization with RARγ (CoIP)", "setting": "[1]", "result": "no effect"}, {"measurement": "α-tubulin nucleation (MT nucleation activity at the centrosomes)", "setting": "[2]", "result": "inhibited α-tubulin nucleation"}, {"measurement": "induction of mitotic arrest and apoptosis", "setting": "[3]", "result": "observed"}, {"measurement": "G2/M arrest, DNA damage response, and apoptosis", "setting": "[4]; primary liver cancer cells", "result": "induced G2/M arrest, DNA damage response, and apoptosis"}, {"measurement": "induction of mitotic arrest and apoptosis", "setting": "[4]; primary mouse liver tumor cells", "result": "observed"}, {"measurement": "chromosomal aberrations (chromosome misalignment)", "setting": "[5]; 10 μM for 2 hr (FIG. 67)", "result": "chromosomal aberrations"}, {"measurement": "mitotic arrest", "setting": "[5]; 10 μM for 6 hr (FIG. 66)", "result": "caused mitotic arrest"}, {"measurement": "effects of compound A1 in normal liver tissues", "setting": "[6]; normal liver tissues of HepG2 xenograft mice (FIG. 71)", "result": "not observed in normal liver tissues"}, {"measurement": "mitotic arrest and DNA damage response in normal tissues", "setting": "[6]; normal tissues of kidney, intestine, spleen, and heart", "result": "no effect"}, {"measurement": "signs of overt toxicities", "setting": "[6]; nude mice, 80 mg/kg once every two days, 14 days", "result": "without any signs of overt toxicities"}, {"measurement": "growth of HepG2 tumor", "setting": "[6]; nude mice, subcutaneous HepG2 xenografts, 80 mg/kg in corn oil once every two days, 14 days (FIGS. 69 and 70)", "result": "strongly inhibited the growth of HepG2 tumor"}, {"measurement": "mitotic arrest, chromosome aberrations, DNA damage response, and caspase 3 activation in tumor cells", "setting": "[6]; tumor specimens from HepG2 xenograft (FIG. 71)", "result": "induction of mitotic arrest, chromosome aberrations, DNA damage response, and caspase 3 activation in tumor cells"}, {"measurement": "p-RXRα interaction with PLK1 (CoIP)", "setting": "[7]", "result": "inhibited"}]}
